Laboratory results as given in patent publication US12648917B2 (University of Florida Research Foundation, Incorporated, priority 2017, dated 2026).
Entries after “also recorded” stand apart in the source; their conditions may differ.

How the values were obtained:
RAN protein translation = assay: RAN protein levels by protein blot in HEK293T cells transfected with repeat expansion constructs; type: cell-based; details: for RAN polyGP protein levels, dose dependence: HEK293T cells transiently transfected with G4C2 expansion constructs (FIG. 4)
Description: . […] Protein blots were run on protein lysates from HEK293T cells transfected with various repeat expansion constructs shown in FIG. 1A. In FIG. 1B, the lanes labeled KMQ, show: RAN poly-Ser-Flag, RAN poly-Ala-HA, ATG initiated polyGln-Myc. In FIG. 1B, the lanes labeled KMQ has a methionine encoding ATG immediately 5′ to the CAG repeat expansion and located within the polyGln reading frame. The lanes labeled KKQ indicate the KKQ vector contains a CAG expansion without an AUG initiation codon, and indicates: RAN polySer-Flag, RAN polyAla-HA, RAN polyGln-Myc. These constructs contain epitope tags that are incorporated into the C-terminal regions of the ATG-initiated poly-Gln and non-ATG initiated RAN proteins (poly-Gln, poly-Leu-Pro-Ala-Cys and poly-Gly-Pro) which are expressed across these repeat expansions. The lane labeled CCTG expresses the following RAN proteins: RAN polyLPAC-Flag, RAN polyLPAC-HA, RAN polyLPAC-Myc. The lane labeled G4C2 is designed to detect the following RAN proteins: RAN polyGP-Flag, RAN polyGR-HA, RAN polyGA-Myc. […].
(§1) HEK293T cells were cultured in DMEM medium supplemented with 10% fetal bovine serum and incubated at 37° C. in a humid atmosphere containing 5% CO2. DNA transfections were performed using Lipofectamine 2000 Reagent (Invitrogen) according to the manufacturer's instructions.
(§2) Transfected cells in each well of a six-well tissue-culture plate were rinsed with PBS and lysed in 300 μL RIPA buffer with protease inhibitor cocktail for 45 min on ice. DNA was sheared by passage through a 21-gauge needle. The cell lysates were centrifuged at 16,000×g for 15 min at 4° C., and the supernatant was collected. The protein concentration of the cell lysate was determined using the protein assay dye reagent (Bio-Rad). Twenty micrograms of protein were separated in a 4-12% NuPAGE Bis-Tris gel (Invitrogen) and transferred to a nitrocellulose membrane (Amersham). The membrane was blocked in 5% dry milk in PBS containing 0.05% Tween-20 (PBS-T) and probed with the anti-Flag (1:2000), anti-Myc (1:1000), anti-HA (1:1000), or rabbit polyclonal antibodies (1:1000) in blocking solution. After the membrane was incubated with anti-rabbit or anti-mouse HRP-conjugated secondary antibody (Amersham), bands were visualized by the ECL plus Western Blotting Detection System (Amersham).
. Transient transfections of expansion constructs treated with or without metformin were performed. […]. […] Protein blots were run on protein lysates from HEK293T cells transfected with various repeat expansion constructs shown in FIG. 5A. In FIG. 5B, the lanes labeled KMQ, show: RAN poly-Ser-Flag, RAN poly-Ala-HA, ATG initiated polyGln-Myc. In FIG. 5B the lanes labeled KMQ has a methionine encoding ATG immediately 5′ to the CAG repeat expansion and located within the polyGln reading frame. The lanes labeled KKQ indicate the KKQ vector contains a CAG expansion without an AUG initiation codon, and indicates: RAN polySer-Flag, RAN polyAla-HA, RAN polyGln-Myc. These constructs contain epitope tags that are incorporated into the C-terminal regions of the ATG-initiated poly-Gln and non-ATG initiated RAN proteins (poly-Gln, poly-Leu-Pro-Ala-Cys and poly-Gly-Pro) which are expressed across these repeat expansions. The lane labeled CCTG expresses the following RAN proteins: RAN polyLPAC-Flag, RAN polyLPAC-HA, RAN polyLPAC-Myc. The lane labeled G4C2 is designed to detect the following RAN proteins: RAN polyGP-Flag, RAN polyGR-HA, RAN polyGA-Myc. […].

PKR = target: T1, PKR (Homo sapiens, UniProt P19525); assay: p-PKR (T446 and T451) levels by protein blot in HEK293T cells transfected with repeat expansion constructs; type: cell-based; details: for G4C2 repeat-expansion induced p-PKR (T446 and T451) levels, dose dependence: cells transfected with a G4C2 repeat expansion construct (FIG. 4)
T1 construct: endogenous in cells; host or cells: HEK293T
T1 sequence (P19525 whole entry): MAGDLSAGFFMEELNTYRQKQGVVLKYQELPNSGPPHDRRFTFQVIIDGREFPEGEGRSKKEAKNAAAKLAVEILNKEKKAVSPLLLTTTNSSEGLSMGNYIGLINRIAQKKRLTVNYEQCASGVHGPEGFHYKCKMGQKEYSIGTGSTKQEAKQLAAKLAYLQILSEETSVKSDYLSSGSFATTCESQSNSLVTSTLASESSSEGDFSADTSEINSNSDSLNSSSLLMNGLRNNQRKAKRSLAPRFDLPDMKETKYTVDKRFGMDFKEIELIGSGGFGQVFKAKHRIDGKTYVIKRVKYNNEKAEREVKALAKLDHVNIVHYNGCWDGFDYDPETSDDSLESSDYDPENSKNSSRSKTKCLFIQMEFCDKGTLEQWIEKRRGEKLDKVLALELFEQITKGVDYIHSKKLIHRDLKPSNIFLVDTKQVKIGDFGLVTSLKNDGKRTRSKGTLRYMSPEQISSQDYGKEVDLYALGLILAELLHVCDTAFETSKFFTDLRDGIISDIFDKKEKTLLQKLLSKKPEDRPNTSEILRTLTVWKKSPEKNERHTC
Procedure: as §1, §2
[…]. Transient transfections of expansion constructs treated with or without metformin were performed. […].

[1] = system: glycine-proline (GP) RAN protein; assay: GP RAN protein levels in leukocyte lysates from peripheral blood of a C9ORF72 expansion-positive subject; type: in vivo; details: single human subject with C9ORF72 repeat expansion, 500 or 1000 mg/day Metformin Hydrochloride Extended Release Tablets, 10 to 30 days after treatment
Description: […]. […] […]. […] […]

GA aggregates = GA aggregates in retrosplenial cortex of C9-BAC mice; type: in vivo, mouse; details: for reduction in the number of GA aggregates compared to C9 controls: 5 mg/ml in drinking water
Procedure: (§3) In Group A animals, treatment began at 2 months of age, before the onset of overt behavioral or pathological phenotypes. In Group B, smaller cohorts of animals (n=8/group) were treated beginning at 6 months, an age at which behavioral phenotypes are evident. DigiGait analyses of Group A mice at 5 months identified eight DigiGait parameters that differed between untreated C9 and NT cohorts. […]. […] […].
Cancer Prev Res (Phila) 3, 1066-1076, doi: 10.1158/1940-6207. CAPR-10-0055 (2010)). In Group A animals, three months of treatment began at 2 months of age, before the onset of overt behavioral or pathological phenotypes. In Group B, smaller cohorts of animals were treated for four months beginning at 6 months, an age at which behavioral phenotypes are evident^12.

C9-BAC mice = assay: Open field analysis (center time) in C9-BAC mice; type: in vivo, mouse; details: Group A metformin-treated C9 mice compared to untreated C9 mice
Procedure: Open field analysis. Open field analysis was performed by testing mouse behavior during a 30 min session in a completely dark open chamber (17″×17″) (Med Associates). Approximately two hours before the start of analysis, mice were placed in the testing room to allow for acclimation to the room. Mice were then placed in the center of the darkened activity-monitoring chamber. The trace path and center time was recorded and analyzed with Activity Monitor (MED associates, Inc.) software.
as §3
DigiGait analyses of Group A mice at 5 months identified eight parameters that differed between untreated C9 and NT cohorts. […]. […]. […]

[2] = system: glial fibrillary acidic protein (GFAP); assay: IHC staining for GFAP (neuroinflammation, reactive gliosis) in C9-BAC mice; type: in vivo, mouse
[3] = metformin 5 mg/ml in the drinking water; previously shown, comparable to human doses of 20 mg/kg/day; cited from earlier work

Row | G4C2 repeat-expansion induced p-PKR (T446 and T451) levels, dose dependence (PKR) | SMILES | RAN polyGP protein levels, dose dependence (RAN protein translation) | RAN protein levels of poly-Ala (RAN protein translation; HEK293T cells transfected with CAG repeat expansion constructs, treated with metformin, protein blot) | RAN protein levels of poly-LPAC (all three reading frames) (RAN protein translation; HEK293T cells transfected with CCTG repeat expansion construct, treated with metformin, protein blot) | RAN protein levels of poly-GP (RAN protein translation; HEK293T cells transfected with G4C2 (GGGGCC) repeat expansion construct, treated with metformin, protein blot) | RAN protein levels / expression (RAN protein translation; HEK293T cells transiently transfected with CAG, CCTG, CAGG and G4C2 expansion constructs (FIG. 3A)) | p-PKR (T446 and T451) levels / PKR phosphorylation (PKR; cells transfected with repeat expansion constructs, with or without metformin (FIG. 3B, FIG. 6A)) | glycine-proline (GP) RAN protein levels compared to pretreatment levels [1] | reduction in the number of GA aggregates compared to C9 controls (GA aggregates; Group A (treated from 2 months of age, 3 months), P=0.01) [%] | reduction in the number of GA aggregates compared to C9 controls (GA aggregates; Group B (treated from 6 months of age), P=0.047) [%] | GA aggregates compared to untreated C9 controls, in words (GA aggregates; metformin in drinking water, Group A and Group B) | open field center time (anxiety-like behavior) (C9-BAC mice) | GFAP staining / reactive gliosis compared to untreated C9 animals, in words ([2]; C9 metformin treated vs untreated C9 animals (Group A)) | reduction of GFAP staining compared to untreated C9 mice ([2]; Group A) [%] | reduction of GFAP staining compared to untreated C9 mice ([2]; Group B) [%] | plasma levels [3] [µM]
1 | reduce levels of p-PKR | CCCCNC(=N)NC(=N)N [buformin] | reduce GP RAN protein levels in a dose-dependent manner |  |  |  |  |  |  |  |  |  |  |  |  |  | 
2 | reduce levels of p-PKR | [H]/N=C(/N)N/C(=N/[H])NCCc1ccccc1 [phenformin] | reduce GP RAN protein levels in a dose-dependent manner |  |  |  |  |  |  |  |  |  |  |  |  |  | 

Row | SMILES | G4C2 repeat-expansion induced p-PKR (T446 and T451) levels, dose dependence (PKR) | RAN polyGP protein levels, dose dependence (RAN protein translation) | RAN protein levels of poly-Ala (RAN protein translation; HEK293T cells transfected with CAG repeat expansion constructs, treated with metformin, protein blot) | RAN protein levels of poly-LPAC (all three reading frames) (RAN protein translation; HEK293T cells transfected with CCTG repeat expansion construct, treated with metformin, protein blot) | RAN protein levels of poly-GP (RAN protein translation; HEK293T cells transfected with G4C2 (GGGGCC) repeat expansion construct, treated with metformin, protein blot) | RAN protein levels / expression (RAN protein translation; HEK293T cells transiently transfected with CAG, CCTG, CAGG and G4C2 expansion constructs (FIG. 3A)) | p-PKR (T446 and T451) levels / PKR phosphorylation (PKR; cells transfected with repeat expansion constructs, with or without metformin (FIG. 3B, FIG. 6A)) | glycine-proline (GP) RAN protein levels compared to pretreatment levels [1] | reduction in the number of GA aggregates compared to C9 controls (GA aggregates; Group A (treated from 2 months of age, 3 months), P=0.01) [%] | reduction in the number of GA aggregates compared to C9 controls (GA aggregates; Group B (treated from 6 months of age), P=0.047) [%] | GA aggregates compared to untreated C9 controls, in words (GA aggregates; metformin in drinking water, Group A and Group B) | open field center time (anxiety-like behavior) (C9-BAC mice) | GFAP staining / reactive gliosis compared to untreated C9 animals, in words ([2]; C9 metformin treated vs untreated C9 animals (Group A)) | reduction of GFAP staining compared to untreated C9 mice ([2]; Group A) [%] | reduction of GFAP staining compared to untreated C9 mice ([2]; Group B) [%] | plasma levels [3] [µM]
3 | CN(C)C(=N)NC(=N)N [metformin] | reduce levels of p-PKR | reduce GP RAN protein levels in a dose-dependent manner | reduced; also recorded: decreases | reduced; also recorded: decreases | reduced; also recorded: decreases | decreases RAN protein levels; also recorded: reduces RAN protein expression | decreases PKR phosphorylation; also recorded: reduces levels of p-PKR | Dose dependent reduction; also recorded: Dose-dependent reduction | 38 | 37 | decreased numbers of GA aggregates; also recorded: reduction in GA aggregates | increased center time; also recorded: normalization or increased center time; also recorded: normalized | significantly reduced; also recorded: decreased levels of reactive gliosis | 79 | 74 | ~10
